From patent publication US5972998A, “Triptolide derivatives useful in the treatment of autoimmune diseases” (priority 1998, dated 1999)
≈ marks a conversion by molar mass, not a printed value. Where two headings read alike, the source gives them in different places.

How the values were obtained:
[1] = test system: adjuvant-induced arthritis; test: Anti-inflammatory activity in the rat model of adjuvant-induced arthritis; assay type: in vivo, rat (male Wistar-Lewis); settings: 12 consecutive days, day 18
Method: Anti-inflammatory Activity in the Rat Model of Adjuvant-induced Arthritis
(§1) Following generally the procedure of Pearson and Wood, Arth. Rheum., 2, 44 (1959), the anti-inflammatory activity of the following compounds was determined in a rat model of adjuvant-induced arthritis. Male Wistar-Lewisrats (Mollegaard, Breeding Centre Ltd, BIBY, DK 4623 LI, SKENSVED, P.P. Box 28, DK) with a body weight between 160 g and 200 g are used. Freund's adjuvant (0.1 mL, 6 mg Mycobacterium smegmatis suspension per mL in heavy white paraffin oil, Merck/Darmstadt) was injected into the base of the tail. Between day 10 and day 14 of the test, immunopathological processes lead to chronic inflammation, especially in the form of arthritic and periarthritic symptoms in all parts of the body. The animals received standardized food Altromin-R (Altrogge, Lage) and had free access to water. The compounds were administered i.p. (suspension in a carboxymethyl cellulose solution in an injection volume of 0.5 mL/100 g body weight) on 12 consecutive days, starting with the day of the adjuvant injection. On day 1 and day 18 of the study, the volume to of both hind paws and the body weight were recorded, and in addition on day 18 the arthritis index. Cyclosporin A and Prednisolone were used as standard compounds. In addition, table IV presents the percent change in body weight (weight gain) between day 1 and day 21 of the above test.

[2] = assay type: in vivo, rat (male Wistar-Lewis); settings: weight gain between day 1 and day 21
Method: as §1

IL-2 = test: Interleukin-2 assay (IL-2 production, ELISA, PHA/TPA-stimulated cells); assay type: cell-based; settings: Jurkat E6-1 cells or human blood lymphocytes, PHA 10 μg/mL + TPA 10^-8 M, 16-24 hours
Method: (§2) Jurkat E6-1 cell line (ATCC), a human leukemic T cell line or lymphocytes prepared from fresh human blood, are grown in complete culture medium consisting of RPMI-1640 (Mediatech) supplemented with 10% v/v fetal bovine serum (HyClone, Logen, Vt.), penicillin (100 units/mL), streptomycin ([…]), and 2 mM L-glutamine (GIBCO, Grand Island, N.Y.). The cells are grown to a concentration of between 1.2 to 1.8×10^6 cells/mL before use. The cells are then centrifuged at low speed and resuspended to a concentration of 1.25×10^6 cells/mL in fresh medium.
(§3) The compounds to be tested are dissolved in DMSO, and water is added to make a 50% DMSO/water solution. The compounds are then diluted in sterile water such that the DMSO concentrations are less then 0.05%. The cells at a concentration of 1.25×10^6 cells/mL are stimulated with phytohemagglutinin 10 μg/mL (PHA) and 10^-8 M phorbol ester (12-O-tetradecanoylphorbol 13-acetate: TPA), (Sigma, St. Louis, Mo.). The compounds are then added and the cells are plated in flat-bottom tissue culture plates (Falcon, Lincoln Park, N.J.), with 250,000 cells/well. Plates are then incubated at 37° C. under an atmosphere of 5% CO2.
(§4) After incubation (16-24 hours), the cells are assayed for IL-2 production and cell viability (MTT). IL-2 production is assayed utilizing a solid phase ELISA immunoassay, sold in kit form by R&D Systems, Inc., Minneapolis, Minn.

[3] = test system: Jurkat E6-1 cell line (ATCC), a human leukemic T cell line or lymphocytes prepared from fresh human blood; test: Cell viability (mitochondrial enzyme assay, MTT); assay type: cell-based; settings: after 16-24 hours incubation
Method: as §2, §3, §4
Cell viability is measured by the use of a mitochondrial enzyme assay. After removal of the supernatant for the IL-2 assay, Cell Titer 96 (a commercial solution of MTT available from Promega, Madison, Wis.) is added to the plates and incubated for 4 hours at 37° C. A solubilization solution is then added and incubated overnight. The plates are then read on an ELISA plate reader at a wavelength of 570 nm. Table II presents the results for the lnterleukin-2 assay, the cell viability assay and the ratio of cell viability/IL-2 inhibition.

[4] = administered in conjunction with another immunosuppressive agent; WO 94/26265; cited from earlier work
lymphocyte = settings: Yang, et al., 1992 and 1994; cited from earlier work
skin allograft rejection = settings: Yang, et al., 1992 and 1994; cited from earlier work

Cyclosporin A [reference compound]
% Inhibition ([1]; 10 mg/kg/day i.p.): 100%
% Change in Body Weight ([2]; 10 mg/kg/day i.p.): 27.2%

[5R-(5α,5aβ,6β,7α,9aβ,9bβ)]-3b,4,5,5a,6,7,9a,10,11-decahydro-5a,6,9a-trihydroxy-9b-methyl-7-(1-methylethyl)-5,7-epoxyphenanthro[1,2-c]furan-1(3H)-one [Example 3]
IC50 /IL-2 (IL-2): 500 ng/mL
IC50 /MTT [3]: > 1,000 ng/mL

CC(C)[C@]1(O)C=C[C@@]2(O)[C@@]3(C)CCC4=C(COC4=O)C3CC[C@@]2(O)[C@@H]1O (stereo partly drawn) [Example 2, [5aR-(5aα,6α,7β,9aα,9bα)]-3b,4,5,5a,6,7,9a,9b,10,11-decahydro-5a,6,7,9a-tetrahydroxy-9b-methyl-7-(1-methylethyl)-phenanthro[1,2-c]furan-1(3H)-one]
% Inhibition ([1]; 2 mg/kg/day i.p.): 83%
% Inhibition ([1]; 4 mg/kg/day i.p.): 72%
% Change in Body Weight ([2]; 2 mg/kg/day i.p.): 18.3%
% Change in Body Weight ([2]; 4 mg/kg/day i.p.): 24.1%
IC50 /IL-2 (IL-2): 14 ng/mL
IC50 /MTT [3]: 90 ng/mL (≈ 0.247 µM)

C[C@@H](CO)[C@]12O[C@H]1[C@@H]1O[C@]13[C@]1(O[C@H]1C[C@H]1C4=C(CC[C@@]13C)C(=O)OC4)[C@@H]2O [16-hydroxytriptolide, 16-Hydroxytriptolide]
immunosuppressive activity relative to the sum of the effects of either agent alone [4]: increase in immunosuppressive activity relative to the sum of the effects

CC(C)[C@]12O[C@H]1[C@@H]1O[C@]13[C@]1(O[C@H]1C[C@H]1C4=C(CC[C@@]13C)C(=O)OC4)[C@@H]2O [Triptolide, triptolide]
suppress lymphocyte proliferation (lymphocyte): suppress lymphocyte proliferation
suppress skin allograft rejection (skin allograft rejection): suppress lymphocyte proliferation and skin allograft rejection
IC50 /MTT [3]: 5 ng/mL (≈ 0.0139 µM)

[5aS-(5aα,5bα,8β,9α,9aR*,10aβ)]-4,5a,5b,8,9,10a,11,11a-octahydro-5b,8,9-trihydroxy-5a-methyl-8-(1-methylethyl)-1H-oxireno[8a,9]phenanthro[1,2-c]furan-3(5)-one [Example 1]
IC50 /IL-2 (IL-2): 1,000 ng/mL
IC50 /MTT [3]: > 1,000 ng/mL
